Measured values: the NIST ThermoML archive (doi:10.1016/j.tca.2013.04.003)
Numbers after ± are expanded uncertainties.

Test: molar enthalpy of vaporization or sublimation
Conditions: Liquid, TGA

| molar enthalpy (432.1 K) [kcal/mol] | SMILES | molar enthalpy (432.4 K) [kcal/mol] |
| --- | --- | --- |
| 30.3 ± 0.717 | CCn1cc[n+](C)c1.[Cl-] [1-ethyl-3-methylimidazolium chloride] | – |
| – | CCCCCCn1cc[n+](C)c1.[Cl-] [1-hexyl-3-methylimidazolium chloride] | 34.4 ± 0.717 |
